# Test results taken from patent US20230075765A1, “PYRROLO[2,3-D]PYRIMIDINE DERIVATIVE TARGETING EGFR MUTATION, AS WELL AS THE PREPARATIVE METHOD AND THE USE THEREOF” (WEST CHINA HOSPITAL, SICHUAN UNIVERSITY, priority 2020, published 2023).
# Legend:
# Experiment in all cases: Kinase inhibition, mobility shift assay
# Format in all cases: biochemical
# [1] = target: T1, BTK (Homo sapiens, UniProt Q06187); settings: for Single-concentration inhibitory activity on BTK, Mean (100% inhibition): compound concentration 4 nM; for IC50: read-out: Inhibitory activity (IC50) on BTK
# T1 construct: purchased Carna 08-180
# T1 sequence (Q06187 whole entry): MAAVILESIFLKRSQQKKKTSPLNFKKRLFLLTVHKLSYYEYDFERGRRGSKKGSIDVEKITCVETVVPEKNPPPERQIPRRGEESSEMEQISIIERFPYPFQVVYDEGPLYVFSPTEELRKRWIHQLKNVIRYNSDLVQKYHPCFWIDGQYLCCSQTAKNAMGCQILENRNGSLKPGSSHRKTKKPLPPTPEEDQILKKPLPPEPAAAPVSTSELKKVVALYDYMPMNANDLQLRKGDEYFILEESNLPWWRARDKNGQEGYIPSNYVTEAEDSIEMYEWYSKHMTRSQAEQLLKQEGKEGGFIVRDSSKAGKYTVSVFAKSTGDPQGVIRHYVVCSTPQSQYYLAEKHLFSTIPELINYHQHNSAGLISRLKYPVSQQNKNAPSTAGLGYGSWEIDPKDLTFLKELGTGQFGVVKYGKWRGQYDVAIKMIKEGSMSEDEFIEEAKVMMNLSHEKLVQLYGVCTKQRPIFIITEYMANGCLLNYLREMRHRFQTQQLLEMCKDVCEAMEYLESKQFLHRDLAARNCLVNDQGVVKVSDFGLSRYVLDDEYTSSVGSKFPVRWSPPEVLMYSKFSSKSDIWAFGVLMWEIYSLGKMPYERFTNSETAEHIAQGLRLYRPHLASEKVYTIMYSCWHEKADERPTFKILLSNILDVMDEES
# Description: (§1) According to relevant literature, the inhibitory activity of five kinases (EGFR, EGFR-LT, EGFR-LTC, BTK, JAK3) were tested. Note: EGFR, EGFR-LT, EGFR-LTC: wild-type EGFR, L858R/T790M (EGFR-LT), or L858R/T790M/C797S (EGFR-LTC) mutant protein.
# (§2) 95 μl of 100% DMSO was added to the first well of a 96-well plate, and then 5 μl of 10 mM compound solution was added to prepare a 500 μM compound solution.
# (§3) 10 μl solution was taken out from the 50-fold concentration of compound solution (prepared and tested), and transferred to a 96-well plate, to which was added 90 μl kinase buffer to prepare a 5-fold concentration of compound solution.
# (§4) 5 μl solution was taken out from the 5-fold concentration of compound solution in a 96-well plate, and transferred to a 384-well reaction plate. For example, the solution was transferred from well A1 of a 96-well plate to wells A1 and A2 of a 384-well plate, from well A2 of a 96-well plate to wells A3 and A4 of a 384-well plate, and so on.
# (§5) 1) The kinase was added to 1× kinase buffer to form 2.5× kinase solution;
# (§6) 2) 10 μl of the above 2.5× kinase solution was transferred to a 384-well reaction plate, and 1× kinase buffer was added to the negative control well, then incubated for 10 min at room temperature;
# (§7) 3) FAM-labeled polypeptide and ATP were added to 1× kinase buffer to form a 2.5×substrate solution;
# (§8) 5) The 384-well reaction plate was incubated at 28° C. for 60 min, to which was added 30 μl of stop solution to stop the reaction, and the model of biochemical incubator was SPX-100B-Z.
# (§9) The conversion rate was read on CaliperEZ Reader.
# (§10) 1) The conversion rate data were copied from CaliperEZ Reader II;
# (§11) 2) The conversion rate was converted into the inhibition rate;
# (§12) Percent inhibition=(max−conversion)/(max−min)*100
# (§13) “min” is the reading of the control well without enzyme; “max” is the reading of DMSO control well.
# (§14) 3) IC50 values were fitted by using XLFit excel add-in version 5.4.0.8.
# (§15) Fitting formula: Y=Bottom+(Top−Bottom)/(1+(IC50/X)^HillSlope)
# [2] = target: T2, EGFR (Homo sapiens, UniProt P00533); settings: for Single-concentration inhibitory activity against EGFR, Mean (100% inhibition): compound concentration 80 nM; for IC50: wild-type EGFR, read-out: Inhibitory activity (IC50) on EGFR
# T2 construct: purchased Carna 14-531
# T2 sequence (P00533 25-1210): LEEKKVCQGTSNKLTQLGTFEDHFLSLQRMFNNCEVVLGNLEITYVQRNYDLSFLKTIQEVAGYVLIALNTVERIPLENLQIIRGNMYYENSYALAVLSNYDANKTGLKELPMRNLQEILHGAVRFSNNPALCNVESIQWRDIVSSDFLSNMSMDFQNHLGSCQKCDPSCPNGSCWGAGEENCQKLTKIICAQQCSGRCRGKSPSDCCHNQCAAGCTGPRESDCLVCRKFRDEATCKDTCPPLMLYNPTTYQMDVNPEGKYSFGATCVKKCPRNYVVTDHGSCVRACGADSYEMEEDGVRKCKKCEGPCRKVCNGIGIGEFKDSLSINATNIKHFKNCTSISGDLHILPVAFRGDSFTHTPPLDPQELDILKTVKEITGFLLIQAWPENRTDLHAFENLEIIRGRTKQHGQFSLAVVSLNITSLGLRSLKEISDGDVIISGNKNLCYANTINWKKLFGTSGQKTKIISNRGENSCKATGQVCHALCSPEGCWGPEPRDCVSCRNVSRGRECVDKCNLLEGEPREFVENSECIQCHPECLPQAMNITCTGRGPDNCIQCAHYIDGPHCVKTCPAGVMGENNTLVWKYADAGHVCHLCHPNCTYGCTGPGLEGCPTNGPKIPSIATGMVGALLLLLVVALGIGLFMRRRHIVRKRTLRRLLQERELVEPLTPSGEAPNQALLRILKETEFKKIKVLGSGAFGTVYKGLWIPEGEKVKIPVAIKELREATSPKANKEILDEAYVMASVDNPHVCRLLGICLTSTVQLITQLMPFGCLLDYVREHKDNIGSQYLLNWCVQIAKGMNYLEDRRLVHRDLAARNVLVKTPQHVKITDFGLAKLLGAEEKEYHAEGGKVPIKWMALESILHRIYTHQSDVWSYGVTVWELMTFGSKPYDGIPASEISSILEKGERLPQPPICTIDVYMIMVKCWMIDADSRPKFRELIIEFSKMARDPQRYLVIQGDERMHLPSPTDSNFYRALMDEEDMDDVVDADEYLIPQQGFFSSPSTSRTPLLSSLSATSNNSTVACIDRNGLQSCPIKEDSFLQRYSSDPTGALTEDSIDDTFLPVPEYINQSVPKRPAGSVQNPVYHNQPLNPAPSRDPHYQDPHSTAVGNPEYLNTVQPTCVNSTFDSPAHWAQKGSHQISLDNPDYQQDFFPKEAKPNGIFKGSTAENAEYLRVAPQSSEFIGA
# Description: as §1, §2, §3, §4, §5, §6, §7, §8, §9, §10, §11, §12, §13, §14, §15
# [3] = target: T3, EGFR (T790M L858R) (Homo sapiens, UniProt P00533, L858R/T790M); settings: for Single-concentration inhibitory activity against EGFR T790M L858R, Mean (100% inhibition): compound concentration 2 nM; for IC50: EGFR L858R/T790M double mutation, read-out: Inhibitory activity (IC50) on EGFR (T790M L858R); for inhibitory activity against EGFR L858R/T790M higher than against wild-type EGFR: ratio of IC50 values wild-type EGFR / EGFR L858R/T790M
# T3 construct: purchased Invitrogen PR8911A
# T3 sequence (P00533 25-1210 T790M/L858R): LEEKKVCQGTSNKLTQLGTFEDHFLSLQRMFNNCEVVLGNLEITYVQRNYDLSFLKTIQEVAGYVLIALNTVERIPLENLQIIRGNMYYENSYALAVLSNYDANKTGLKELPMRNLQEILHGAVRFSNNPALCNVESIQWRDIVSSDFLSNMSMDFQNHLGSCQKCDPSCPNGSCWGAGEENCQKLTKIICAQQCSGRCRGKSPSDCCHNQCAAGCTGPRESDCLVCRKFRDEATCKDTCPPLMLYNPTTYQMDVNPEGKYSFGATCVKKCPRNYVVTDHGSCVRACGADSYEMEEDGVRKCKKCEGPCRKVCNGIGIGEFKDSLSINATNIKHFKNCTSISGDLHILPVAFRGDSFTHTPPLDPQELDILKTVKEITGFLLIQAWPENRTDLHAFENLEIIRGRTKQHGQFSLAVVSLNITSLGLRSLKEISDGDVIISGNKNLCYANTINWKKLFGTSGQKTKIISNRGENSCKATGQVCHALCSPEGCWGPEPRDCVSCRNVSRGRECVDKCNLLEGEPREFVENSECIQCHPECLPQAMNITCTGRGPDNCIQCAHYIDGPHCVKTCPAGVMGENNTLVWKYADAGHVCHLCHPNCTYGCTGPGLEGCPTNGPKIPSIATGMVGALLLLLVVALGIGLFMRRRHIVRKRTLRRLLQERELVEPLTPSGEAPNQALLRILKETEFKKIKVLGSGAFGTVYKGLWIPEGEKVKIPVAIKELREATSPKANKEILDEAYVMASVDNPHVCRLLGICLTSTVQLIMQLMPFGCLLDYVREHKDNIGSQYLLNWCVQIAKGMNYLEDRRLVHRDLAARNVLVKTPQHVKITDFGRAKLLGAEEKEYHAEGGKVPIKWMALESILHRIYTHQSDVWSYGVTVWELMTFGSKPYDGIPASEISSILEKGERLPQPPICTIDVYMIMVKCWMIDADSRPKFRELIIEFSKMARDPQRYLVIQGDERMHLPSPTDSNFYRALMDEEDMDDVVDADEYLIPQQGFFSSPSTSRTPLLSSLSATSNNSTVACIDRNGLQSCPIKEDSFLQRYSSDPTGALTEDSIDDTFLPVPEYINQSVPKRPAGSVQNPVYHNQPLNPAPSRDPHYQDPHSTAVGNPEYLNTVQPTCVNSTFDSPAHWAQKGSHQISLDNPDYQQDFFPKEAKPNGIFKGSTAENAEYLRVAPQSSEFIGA
# Description: as §1, §2, §3, §4, §5, §6, §7, §8, §9, §10, §11, §12, §13, §14, §15
# [4] = target: T4, JAK3 (Homo sapiens, UniProt P52333); settings: for Single-concentration inhibitory activity on JAK3, Mean (100% inhibition): compound concentration 1 nM; for IC50: read-out: Inhibitory activity (IC50) on JAK3
# T4 construct: purchased Carna 08-046
# T4 sequence (P52333 1-1124): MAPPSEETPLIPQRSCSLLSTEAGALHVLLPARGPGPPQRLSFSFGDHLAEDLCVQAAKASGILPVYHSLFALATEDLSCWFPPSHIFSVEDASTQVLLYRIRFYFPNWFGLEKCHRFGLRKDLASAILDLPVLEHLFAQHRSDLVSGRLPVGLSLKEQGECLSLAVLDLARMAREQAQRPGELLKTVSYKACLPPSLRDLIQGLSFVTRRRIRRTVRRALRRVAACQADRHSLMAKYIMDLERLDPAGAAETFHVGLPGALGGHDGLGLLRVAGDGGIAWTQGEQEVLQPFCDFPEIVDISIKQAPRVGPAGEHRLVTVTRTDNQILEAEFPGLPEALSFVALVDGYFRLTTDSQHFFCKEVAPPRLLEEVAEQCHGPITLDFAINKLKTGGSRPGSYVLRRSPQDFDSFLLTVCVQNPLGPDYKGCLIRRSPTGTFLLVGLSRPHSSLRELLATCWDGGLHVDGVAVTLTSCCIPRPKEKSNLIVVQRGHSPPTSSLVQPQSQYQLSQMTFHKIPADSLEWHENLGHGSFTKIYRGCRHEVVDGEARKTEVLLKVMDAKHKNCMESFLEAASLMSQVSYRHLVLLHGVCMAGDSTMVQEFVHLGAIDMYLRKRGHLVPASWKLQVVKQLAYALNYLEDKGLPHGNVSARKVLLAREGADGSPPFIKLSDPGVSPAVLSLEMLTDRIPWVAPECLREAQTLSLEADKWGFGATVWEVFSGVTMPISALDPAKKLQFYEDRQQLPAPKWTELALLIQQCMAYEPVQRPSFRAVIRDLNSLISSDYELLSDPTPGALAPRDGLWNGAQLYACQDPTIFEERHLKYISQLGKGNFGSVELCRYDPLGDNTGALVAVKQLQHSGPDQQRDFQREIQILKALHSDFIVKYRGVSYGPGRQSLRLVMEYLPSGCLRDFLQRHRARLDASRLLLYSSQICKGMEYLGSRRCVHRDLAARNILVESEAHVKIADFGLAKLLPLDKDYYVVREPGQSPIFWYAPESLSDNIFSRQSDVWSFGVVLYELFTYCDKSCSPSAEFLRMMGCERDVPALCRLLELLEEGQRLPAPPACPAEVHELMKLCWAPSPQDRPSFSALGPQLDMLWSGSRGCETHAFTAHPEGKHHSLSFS
# Description: as §1, §2, §3, §4, §5, §6, §7, §8, §9, §10, §11, §12, §13, §14, §15
SMILES,"Single-concentration inhibitory activity on BTK, Mean (100% inhibition) [1]","Single-concentration inhibitory activity against EGFR, Mean (100% inhibition) [2]","Single-concentration inhibitory activity against EGFR T790M L858R, Mean (100% inhibition) [3]","Single-concentration inhibitory activity on JAK3, Mean (100% inhibition) [4]",IC50 [1],IC50 [2],IC50 [3],inhibitory activity against EGFR L858R/T790M higher than against wild-type EGFR [3],IC50 [4]
C=CC(=O)Nc1cccc(Oc2nc(Nc3ccc(N4CCN(C)CC4)c([N+](=O)[O-])c3)nc3[nH]ccc23)c1 [Compound 5],3.8 % inhibition,37 % inhibition,49 % inhibition,23 % inhibition,43 nM,145 nM,2.7 nM,54 fold,2.2 nM
C=CC(=O)Nc1cccc(Oc2nc(Nc3ccc(N4CCN(C)CC4)c(OC)c3)nc3[nH]ccc23)c1 [Compound 4],15 % inhibition,32 % inhibition,42 % inhibition,26 % inhibition,31 nM,217 nM,3.1 nM,70 fold,2.3 nM
C=CC(=O)Nc1cccc(Oc2nc(Nc3ccc(N4CCN(C)CC4)c(Cl)c3)nc3[nH]ccc23)c1 [Compound 2],37 % inhibition,86 % inhibition,92 % inhibition,77 % inhibition,–,–,–,–,–
C=CC(=O)Nc1cccc(Oc2nc(Nc3ccc(N4CCN(C)CC4)c(N)c3)nc3[nH]ccc23)c1 [Compound 6],27 % inhibition,63 % inhibition,36 % inhibition,29 % inhibition,11 nM,64 nM,3.4 nM,18 fold,2.2 nM

# Continued, values first:
"Single-concentration inhibitory activity on BTK, Mean (100% inhibition) [1]","Single-concentration inhibitory activity against EGFR, Mean (100% inhibition) [2]","Single-concentration inhibitory activity against EGFR T790M L858R, Mean (100% inhibition) [3]","Single-concentration inhibitory activity on JAK3, Mean (100% inhibition) [4]",IC50 [1],IC50 [2],IC50 [3],inhibitory activity against EGFR L858R/T790M higher than against wild-type EGFR [3],IC50 [4],SMILES
5.9 % inhibition,4.7 % inhibition,3.5 % inhibition,−1.4 % inhibition,–,–,–,–,–,C=CC(=O)Nc1cccc(Oc2nc(Nc3ccc(N4CCN(C)CC4)c([N+](=O)[O-])c3)nc3c2ccn3COC(=O)C(C)(C)C)c1 [Compound 7]
−2.9 % inhibition,4.5 % inhibition,2.4 % inhibition,−7.6 % inhibition,–,–,–,–,–,C=CC(=O)Nc1cccc(Oc2nc(Nc3ccc(N4CCN(C)CC4)c(N)c3)nc3c2ccn3COC(=O)C(C)(C)C)c1 [Compound 8]
3.3 % inhibition,3.6 % inhibition,0.1 % inhibition,−4.0 % inhibition,–,–,–,–,–,C=CC(=O)Nc1cccc(Oc2nc(Nc3ccc(N4CCN(C)CC4)c(I)c3)nc3c2ccn3COC(=O)C(C)(C)C)c1 [Compound 9]
